According to PubChem BioAssay (NCI):
Where “and” joins values, the source holds several entries; their conditions need not be identical. Equal values may be shown once.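 Briefly, cells in 96-well plates were exposed to five compound concentrations for 48 h, and endpoints were estimated by linear interpolation. GI50 is the concentration that inhibits growth by half. The concentration for full growth arrest is given as TGI.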

How the values were obtained:
Assay in all cases: NCI tumour cell line growth inhibition, 48 h
786-0 renal = system: 786-0 renal
A498 renal = system: A498 renal
A549 NSCLC = system: A549 NSCLC
ACHN renal = system: ACHN renal
BT-549 breast = system: BT-549 breast
CAKI-1 renal = system: CAKI-1 renal
CCRF-CEM leukemia = system: CCRF-CEM leukemia
COLO 205 colon = system: COLO 205 colon
DLD-1 colon = system: DLD-1 colon
DMS 114 small cell lung = system: DMS 114 small cell lung
DMS 273 small cell lung = system: DMS 273 small cell lung
EKVX NSCLC = system: EKVX NSCLC
HCC-2998 colon = system: HCC-2998 colon
HCT-116 colon = system: HCT-116 colon
HCT-15 colon = system: HCT-15 colon
HL-60(TB) leukemia = system: HL-60(TB) leukemia
HOP-18 NSCLC = system: HOP-18 NSCLC
HOP-62 NSCLC = system: HOP-62 NSCLC
HOP-92 NSCLC = system: HOP-92 NSCLC
HS 578T breast = system: HS 578T breast
HT29 colon = system: HT29 colon
IGROV1 ovarian = system: IGROV1 ovarian
K-562 leukemia = system: K-562 leukemia
KM12 colon = system: KM12 colon
KM20L2 colon = system: KM20L2 colon
LOX IMVI melanoma = system: LOX IMVI melanoma
LXFL 529 NSCLC = system: LXFL 529 NSCLC
M14 melanoma = system: M14 melanoma
MALME-3M melanoma = system: MALME-3M melanoma
MCF7 breast = system: MCF7 breast
MDA-MB-231 breast = system: MDA-MB-231 breast
MDA-MB-435 = system: MDA-MB-435
MDA-N = system: MDA-N
MOLT-4 leukemia = system: MOLT-4 leukemia
NCI-H226 lung = system: NCI-H226 lung
NCI-H23 lung = system: NCI-H23 lung
NCI-H460 lung = system: NCI-H460 lung
NCI-H522 lung = system: NCI-H522 lung
NCI/ADR-RES ovarian = system: NCI/ADR-RES ovarian
OVCAR-3 ovarian = system: OVCAR-3 ovarian
OVCAR-4 ovarian = system: OVCAR-4 ovarian
OVCAR-5 ovarian = system: OVCAR-5 ovarian
OVCAR-8 ovarian = system: OVCAR-8 ovarian
P388 leukemia = system: P388 leukemia
P388/ADR leukemia = system: P388/ADR leukemia
PC-3 prostate = system: PC-3 prostate
RPMI-8226 leukemia = system: RPMI-8226 leukemia
RXF 393 renal = system: RXF 393 renal
SK-MEL-2 melanoma = system: SK-MEL-2 melanoma
SK-MEL-28 melanoma = system: SK-MEL-28 melanoma
SK-MEL-5 melanoma = system: SK-MEL-5 melanoma
SK-OV-3 ovarian = system: SK-OV-3 ovarian
SN12C renal = system: SN12C renal
SN12K1 renal = system: SN12K1 renal
SR leukemia = system: SR leukemia
SW-620 colon = system: SW-620 colon
T-47D breast = system: T-47D breast
TK-10 renal = system: TK-10 renal
UACC-257 melanoma = system: UACC-257 melanoma
UACC-62 melanoma = system: UACC-62 melanoma
UO-31 renal = system: UO-31 renal

CO[C@@]12[C@H](COC(N)=O)C3=C(C(=O)C(C)=C(N)C3=O)N1C[C@@H]1N[C@@H]12
GI50 (786-0 renal): 0.717 µM | TGI (786-0 renal): 4.99 µM and 10.2 µM and 4.74 µM | GI50 (A498 renal): 1.05 µM | TGI (A498 renal): 2.68 µM and 2.64 µM | TGI (A549 NSCLC): 8.52 µM and 25 µM and 2.78 µM | TGI (ACHN renal): 4.88 µM and 1.76 µM | GI50 (BT-549 breast): 0.799 µM | TGI (BT-549 breast): 9.38 µM and 6.85 µM and 6.4 µM | TGI (CAKI-1 renal): 6.18 µM and 25 µM and 3.07 µM | GI50 (CCRF-CEM leukemia): 0.126 µM and 0.0625 µM | TGI (CCRF-CEM leukemia): 13.2 µM and 1.96 µM and 18.6 µM | GI50 (COLO 205 colon): 1.7 µM | TGI (COLO 205 colon): 5.21 µM and 8.43 µM and 7.05 µM | TGI (DLD-1 colon): 17.2 µM | TGI (DMS 114 small cell lung): 5.08 µM | TGI (DMS 273 small cell lung): 3.6 µM | GI50 (EKVX NSCLC): 7.98 µM | TGI (EKVX NSCLC): 17.1 µM and 20.8 µM and 31.7 µM | GI50 (HCC-2998 colon): 1.14 µM | TGI (HCC-2998 colon): 2.88 µM and 2.98 µM and 3.91 µM | GI50 (HCT-116 colon): 1.26 µM and 1.15 µM | TGI (HCT-116 colon): 6.06 µM and 4.21 µM and 8.46 µM | GI50 (HCT-15 colon): 1.92 µM and 1.67 µM | TGI (HCT-15 colon): 10.4 µM and 16.4 µM and 43.4 µM | GI50 (HL-60(TB) leukemia): 0.126 µM | TGI (HOP-18 NSCLC): 7.59 µM | GI50 (HOP-62 NSCLC): 0.643 µM | GI50 (HOP-92 NSCLC): 1.81 µM and 1.75 µM | TGI (HOP-92 NSCLC): 12.4 µM and 5.53 µM and 7.2 µM | GI50 (HS 578T breast): 4.21 µM and 5.26 µM | TGI (HS 578T breast): 15.3 µM and 14 µM and 52.1 µM | GI50 (HT29 colon): 1.45 µM and 0.542 µM | TGI (HT29 colon): 12.3 µM and 13 µM and 23.7 µM | GI50 (IGROV1 ovarian): 3.24 µM and 1.5 µM | TGI (IGROV1 ovarian): 8.88 µM and 8.21 µM and 5.97 µM | GI50 (K-562 leukemia): 1.52 µM | TGI (K-562 leukemia): 19.6 µM and 15.6 µM and > 100 µM | GI50 (KM12 colon): 1.57 µM and 3.5 µM | TGI (KM20L2 colon): 10.2 µM | GI50 (LOX IMVI melanoma): 0.615 µM | TGI (LOX IMVI melanoma): 4.26 µM and 3.47 µM | TGI (LXFL 529 NSCLC): 7.53 µM | GI50 (M14 melanoma): 1.09 µM | TGI (M14 melanoma): 4.08 µM and 12.2 µM and 2.06 µM | GI50 (MALME-3M melanoma): 2.26 µM and 1.38 µM | TGI (MALME-3M melanoma): 4.06 µM and 6.53 µM and 4.03 µM | GI50 (MCF7 breast): 0.215 µM and 0.0824 µM | TGI (MCF7 breast): 8.6 µM and 15.1 µM and 47 µM | GI50 (MDA-MB-231 breast): 17.5 µM and 9.42 µM | TGI (MDA-MB-231 breast): 16.8 µM and 25 µM and 56.3 µM | GI50 (MDA-MB-435): 2.14 µM and 2.91 µM and 1.53 µM | TGI (MDA-MB-435): 6.92 µM and 12.7 µM and 15.3 µM | GI50 (MDA-N): 2.11 µM and 2.67 µM | TGI (MDA-N): 7.44 µM and 19.1 µM | GI50 (MOLT-4 leukemia): 0.271 µM | GI50 (NCI-H226 lung): 1.35 µM and 1.45 µM | TGI (NCI-H226 lung): 3.95 µM and 7.99 µM and 8.8 µM | GI50 (NCI-H23 lung): 0.77 µM | TGI (NCI-H23 lung): 1.43 µM and 3.86 µM and 4.56 µM | TGI (NCI-H460 lung): 1.03 µM and 1.48 µM | GI50 (NCI-H522 lung): 1.1 µM and 1.18 µM | TGI (NCI-H522 lung): 3.85 µM and 4.17 µM and 8.07 µM | GI50 (NCI/ADR-RES ovarian): 3.83 µM | TGI (NCI/ADR-RES ovarian): 20 µM and 21.4 µM and > 100 µM | GI50 (OVCAR-3 ovarian): 5.79 µM and 3.66 µM | TGI (OVCAR-3 ovarian): 8.8 µM and 14.4 µM and 34.4 µM | GI50 (OVCAR-4 ovarian): 4.65 µM | TGI (OVCAR-4 ovarian): 10.5 µM and 10.1 µM and 42.8 µM | GI50 (OVCAR-5 ovarian): 2.69 µM and 1.65 µM | TGI (OVCAR-5 ovarian): 9.29 µM and 10.5 µM and 14 µM | GI50 (OVCAR-8 ovarian): 1.52 µM and 0.925 µM | TGI (P388 leukemia): 9.62 µM | TGI (P388/ADR leukemia): 16 µM | GI50 (PC-3 prostate): 2.65 µM and 4.99 µM | TGI (PC-3 prostate): 17.4 µM and 20 µM and 25.7 µM | GI50 (RPMI-8226 leukemia): 2.03 µM and 1.88 µM | TGI (RPMI-8226 leukemia): 19.2 µM and 14.2 µM and 15.5 µM | GI50 (RXF 393 renal): 1.23 µM | TGI (RXF 393 renal): 6.36 µM and 6.07 µM and 3.77 µM | GI50 (SK-MEL-2 melanoma): 4.21 µM and 2.54 µM | TGI (SK-MEL-2 melanoma): 4.96 µM and 7.5 µM and 6.61 µM | GI50 (SK-MEL-28 melanoma): 2.18 µM | TGI (SK-MEL-28 melanoma): 7.12 µM and 14.9 µM | GI50 (SK-MEL-5 melanoma): 1.6 µM | TGI (SK-MEL-5 melanoma): 1.22 µM and 3.25 µM and 1.69 µM | GI50 (SK-OV-3 ovarian): 2.41 µM | TGI (SK-OV-3 ovarian): 9.83 µM and 18 µM and 7.06 µM | GI50 (SN12C renal): 0.995 µM | TGI (SN12C renal): 9.59 µM and 25 µM and 30.8 µM | TGI (SN12K1 renal): 7.65 µM | GI50 (SR leukemia): 0.0345 µM | GI50 (SW-620 colon): 0.665 µM | TGI (SW-620 colon): 13 µM and 9.44 µM and 24.2 µM | GI50 (T-47D breast): 2.25 µM and 1.41 µM | GI50 (TK-10 renal): 2.63 µM | GI50 (UACC-257 melanoma): 2.16 µM | TGI (UACC-257 melanoma): 5.17 µM and 7.79 µM and 11.2 µM | GI50 (UACC-62 melanoma): 0.952 µM | TGI (UACC-62 melanoma): 2.64 µM and 7.74 µM and 2.19 µM | TGI (UO-31 renal): 6.88 µM and 0.959 µM
